# According to ChEMBL document CHEMBL1201862, “PubChem BioAssay data set” (2004):
# Calls of active or inactive are those of the source.
# Tests used:
# Ion channel NompC = Ion channel NompC (Danio rerio, UniProt Q7T1G6); experiment: Fluorescence counterscreen assay for TRPML3 agonists: dose response cell-based high-throughput screening assay to identify agonists of the transient receptor potential channel N1 (TRPN1). [Related pubchem assays: 1526, 1424, 1448 ]; assay type: functional
# Beta-galactosidase [1] = target: T1, Beta-galactosidase (Escherichia coli, UniProt Q8VNN2); assay type: functional
# [2] = target: Photoreceptor-specific nuclear receptor (Homo sapiens, UniProt Q9Y5X4); assay type: functional, cell-based;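 also: CHO-S cells with Gal4-NCOR and VP16-NR2E3 two-hybrid luciferase reporter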
# Beta-galactosidase [3] = target: T1, Beta-galactosidase; experiment: beta-galactosidase enzyme inhibitors and activators, dose response, artefact control for CCR6 antagonist project, biochemical, E. coli enzyme, set 3 (AID 504712); assay type: functional
# [4] = target: T2, Kappa-type opioid receptor (Homo sapiens, UniProt P41145); assay type: functional
# [5] = target: T2, Kappa-type opioid receptor; assay type: functional; remark: listed apart in the source
# Mucolipin-3 = target: T3, Mucolipin-3 (Homo sapiens, UniProt Q8TDD5); experiment: Dose response cell-based high-throughput screening assay for agonists of the transient receptor potential channel ML3 (TRPML3). [Related pubchem assays: 1526, 1424, 1448 ]; assay type: functional
# T3 sequence (Q8TDD5 whole entry): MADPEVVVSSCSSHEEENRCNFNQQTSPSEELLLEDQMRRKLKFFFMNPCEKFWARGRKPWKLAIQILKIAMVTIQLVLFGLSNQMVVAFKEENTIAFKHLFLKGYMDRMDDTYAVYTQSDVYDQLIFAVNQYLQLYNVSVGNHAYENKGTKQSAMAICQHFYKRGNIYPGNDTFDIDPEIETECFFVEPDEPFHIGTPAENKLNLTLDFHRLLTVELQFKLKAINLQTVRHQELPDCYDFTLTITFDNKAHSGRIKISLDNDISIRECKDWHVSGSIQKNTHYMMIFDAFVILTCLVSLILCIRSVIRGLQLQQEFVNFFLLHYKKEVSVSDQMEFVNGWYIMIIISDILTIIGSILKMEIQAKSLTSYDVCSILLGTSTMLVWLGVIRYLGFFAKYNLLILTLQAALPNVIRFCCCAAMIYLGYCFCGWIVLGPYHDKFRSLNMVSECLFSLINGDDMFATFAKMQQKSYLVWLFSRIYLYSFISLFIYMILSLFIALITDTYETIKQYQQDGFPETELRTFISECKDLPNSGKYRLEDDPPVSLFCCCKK
# Hexokinase HKDC1 = Hexokinase HKDC1 (Homo sapiens, UniProt Q2TB90); experiment: HKDC1 hexokinase activators, dose response, biochemical, W721R variant (AID 504730); assay type: functional
# Hexokinase-1 = Hexokinase-1 (Homo sapiens, UniProt P19367); experiment: hexokinase 1 activators, dose response, selectivity assay for HKDC1 activator project, biochemical (AID 504762); assay type: functional
# [6] = target: Dual specificity tyrosine-phosphorylation-regulated kinase 1A (Rattus norvegicus, UniProt Q63470); assay type: biochemical, Homo sapiens
# [7] = target: T4, Runt-related transcription factor 1/Core-binding factor subunit beta (Homo sapiens, UniProt Q01196+Q13951); experiment: inhibitors of RUNX1 Runt–CBFb-SMMHC binding, primary screen, biochemical, FRET, Cerulean-Runt, Venus-CBFb-SMMHC, uHTS (AID 1434); assay type: protein assay;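 also: partner is the CBFb-SMMHC leukemia fusion protein rather than wild-type CBFb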
# [8] = target: T4, Runt-related transcription factor 1/Core-binding factor subunit beta; experiment: inhibitors of RUNX1 Runt–CBFb-SMMHC binding, biochemical, TR-FRET (AID 1438); assay type: protein assay
# [9] = target: T4, Runt-related transcription factor 1/Core-binding factor subunit beta; experiment: Confirmation of compounds inhibiting the binding between the RUNX1 Runt domain and CBFb-SMMHC via a time resolved fluorescence resonance energy transfer (TR-FRET) assay. [Related pubchem assays (depositor defined):AID1434, AID1438, AID1496, AID1560, AID1645]; assay type: protein assay
# [10] = target: T4, Runt-related transcription factor 1/Core-binding factor subunit beta; experiment: Confirmation of compounds inhibiting the binding between the RUNX1 Runt domain and CBFb-SMMHC via a fluorescence resonance energy transfer (FRET) assay. [Related pubchem assays (depositor defined):AID1434, AID1438, AID1496, AID1550, AID1645]; assay type: protein assay
# [11] = target: Voltage-dependent T-type calcium channel subunit alpha-1H (Homo sapiens, UniProt O95180); experiment: Cav3.2 T-type channel inhibitors, cell-based, synthetic library set 1, calcium flux (AID 493022); assay type: functional
# Hexokinase = Hexokinase (Trypanosoma brucei, UniProt Q38C41); experiment: Confirmation assay for inhibitors of Trypanosoma brucei hexokinase 1-Analogue-first series. [Related pubchem assays (depositor defined):AID1430, AID1632, AID2516, AID2560, AID2579, AID2600, AID449725, AID492951]; assay type: functional
# Mu-type opioid receptor = Mu-type opioid receptor (Homo sapiens, UniProt P35372); experiment: SAR Analysis of Antagonists of the MOR Receptor using an Image-Based Assay - Set 3. [Related pubchem assays (depositor defined):AID1777, AID1785, AID1786, AID1966, AID2133, AID2136, AID2284, AID2285, AID2420]; assay type: functional
# [12] = target: Delta-type opioid receptor (Homo sapiens, UniProt P41143); experiment: SAR Analysis of Antagonists of the DOR Receptor using an Image-Based Assay - Set 3. [Related pubchem assays (depositor defined):AID1777, AID1785]; assay type: functional;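 also: U2OS cells expressing DOR1 and beta-arrestin GFP stimulated with 100 nM SNC80; imaging of GFP-tagged beta-arrestin moving into spots after receptor activation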
# Nonstructural protein 1 = Nonstructural protein 1 (Influenza A virus, UniProt Q194T2); assay type: functional, Influenza A virus (A/California/07/2009(H1N1))
# Sequence of Nonstructural protein 1 (Q194T2 whole entry): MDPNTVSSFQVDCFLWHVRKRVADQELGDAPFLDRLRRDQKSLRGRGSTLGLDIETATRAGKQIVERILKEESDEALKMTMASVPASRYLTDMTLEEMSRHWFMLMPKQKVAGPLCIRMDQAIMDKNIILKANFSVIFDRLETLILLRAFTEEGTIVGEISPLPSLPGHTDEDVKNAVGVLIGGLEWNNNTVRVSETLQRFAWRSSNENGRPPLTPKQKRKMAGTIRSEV
# T4 sequence (Q01196 whole entry, the tested form may be a part): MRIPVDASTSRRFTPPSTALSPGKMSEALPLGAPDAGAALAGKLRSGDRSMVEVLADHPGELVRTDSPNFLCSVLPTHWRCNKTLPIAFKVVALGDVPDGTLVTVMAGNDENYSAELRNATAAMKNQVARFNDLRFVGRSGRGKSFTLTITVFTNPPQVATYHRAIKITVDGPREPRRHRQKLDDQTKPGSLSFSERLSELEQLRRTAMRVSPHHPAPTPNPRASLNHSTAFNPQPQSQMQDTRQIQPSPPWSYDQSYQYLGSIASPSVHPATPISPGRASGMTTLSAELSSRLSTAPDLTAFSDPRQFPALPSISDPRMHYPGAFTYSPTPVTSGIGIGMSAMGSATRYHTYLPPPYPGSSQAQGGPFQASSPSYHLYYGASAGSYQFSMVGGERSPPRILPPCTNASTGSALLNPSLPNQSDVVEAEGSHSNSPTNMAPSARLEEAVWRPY
# T4 sequence (Q13951 whole entry, the tested form may be a part): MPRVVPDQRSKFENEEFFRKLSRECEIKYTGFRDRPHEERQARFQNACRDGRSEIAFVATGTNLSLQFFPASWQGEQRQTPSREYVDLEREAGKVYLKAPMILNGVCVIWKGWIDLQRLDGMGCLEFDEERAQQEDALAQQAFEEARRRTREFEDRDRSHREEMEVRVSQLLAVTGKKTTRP
# T2 sequence (P41145 whole entry): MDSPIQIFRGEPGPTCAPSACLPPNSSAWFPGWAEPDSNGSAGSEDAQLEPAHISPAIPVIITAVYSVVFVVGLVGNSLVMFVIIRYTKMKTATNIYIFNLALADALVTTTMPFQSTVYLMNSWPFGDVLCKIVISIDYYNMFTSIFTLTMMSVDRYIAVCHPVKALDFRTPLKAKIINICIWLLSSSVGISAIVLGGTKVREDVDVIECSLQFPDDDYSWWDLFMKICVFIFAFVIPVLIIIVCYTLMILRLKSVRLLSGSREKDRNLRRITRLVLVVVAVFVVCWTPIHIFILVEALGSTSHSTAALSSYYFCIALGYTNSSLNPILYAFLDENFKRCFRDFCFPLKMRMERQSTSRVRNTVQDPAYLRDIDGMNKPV
# T1 sequence (Q8VNN2 whole entry, the tested form may be a part): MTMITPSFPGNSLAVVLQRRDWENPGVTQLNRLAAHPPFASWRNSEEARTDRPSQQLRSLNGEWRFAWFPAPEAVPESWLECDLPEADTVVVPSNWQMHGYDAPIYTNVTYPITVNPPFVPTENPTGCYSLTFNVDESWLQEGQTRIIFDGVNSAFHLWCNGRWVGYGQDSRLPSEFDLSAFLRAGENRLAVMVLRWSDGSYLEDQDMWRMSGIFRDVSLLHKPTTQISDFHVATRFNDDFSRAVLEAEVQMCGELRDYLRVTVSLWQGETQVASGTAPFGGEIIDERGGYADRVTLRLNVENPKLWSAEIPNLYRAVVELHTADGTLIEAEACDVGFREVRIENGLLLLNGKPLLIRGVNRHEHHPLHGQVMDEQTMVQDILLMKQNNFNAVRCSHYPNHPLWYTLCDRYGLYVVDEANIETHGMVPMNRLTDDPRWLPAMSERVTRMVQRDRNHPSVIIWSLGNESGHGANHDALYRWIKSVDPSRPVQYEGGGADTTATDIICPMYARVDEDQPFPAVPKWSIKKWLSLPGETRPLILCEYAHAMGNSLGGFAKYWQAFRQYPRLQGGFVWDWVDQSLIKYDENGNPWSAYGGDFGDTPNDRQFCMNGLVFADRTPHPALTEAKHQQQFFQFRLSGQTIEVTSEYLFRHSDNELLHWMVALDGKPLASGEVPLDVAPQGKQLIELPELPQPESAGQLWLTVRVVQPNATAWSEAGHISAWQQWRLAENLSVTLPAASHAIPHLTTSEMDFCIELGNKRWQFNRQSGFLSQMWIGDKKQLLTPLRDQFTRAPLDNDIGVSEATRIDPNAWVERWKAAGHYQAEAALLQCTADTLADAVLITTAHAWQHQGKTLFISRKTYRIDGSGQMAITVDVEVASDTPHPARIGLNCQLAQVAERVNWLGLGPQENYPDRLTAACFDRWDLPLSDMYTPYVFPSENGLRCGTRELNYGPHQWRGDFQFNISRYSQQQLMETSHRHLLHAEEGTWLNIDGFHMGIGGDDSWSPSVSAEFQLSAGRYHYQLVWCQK
# Sequence of Hexokinase HKDC1 (Q2TB90 whole entry): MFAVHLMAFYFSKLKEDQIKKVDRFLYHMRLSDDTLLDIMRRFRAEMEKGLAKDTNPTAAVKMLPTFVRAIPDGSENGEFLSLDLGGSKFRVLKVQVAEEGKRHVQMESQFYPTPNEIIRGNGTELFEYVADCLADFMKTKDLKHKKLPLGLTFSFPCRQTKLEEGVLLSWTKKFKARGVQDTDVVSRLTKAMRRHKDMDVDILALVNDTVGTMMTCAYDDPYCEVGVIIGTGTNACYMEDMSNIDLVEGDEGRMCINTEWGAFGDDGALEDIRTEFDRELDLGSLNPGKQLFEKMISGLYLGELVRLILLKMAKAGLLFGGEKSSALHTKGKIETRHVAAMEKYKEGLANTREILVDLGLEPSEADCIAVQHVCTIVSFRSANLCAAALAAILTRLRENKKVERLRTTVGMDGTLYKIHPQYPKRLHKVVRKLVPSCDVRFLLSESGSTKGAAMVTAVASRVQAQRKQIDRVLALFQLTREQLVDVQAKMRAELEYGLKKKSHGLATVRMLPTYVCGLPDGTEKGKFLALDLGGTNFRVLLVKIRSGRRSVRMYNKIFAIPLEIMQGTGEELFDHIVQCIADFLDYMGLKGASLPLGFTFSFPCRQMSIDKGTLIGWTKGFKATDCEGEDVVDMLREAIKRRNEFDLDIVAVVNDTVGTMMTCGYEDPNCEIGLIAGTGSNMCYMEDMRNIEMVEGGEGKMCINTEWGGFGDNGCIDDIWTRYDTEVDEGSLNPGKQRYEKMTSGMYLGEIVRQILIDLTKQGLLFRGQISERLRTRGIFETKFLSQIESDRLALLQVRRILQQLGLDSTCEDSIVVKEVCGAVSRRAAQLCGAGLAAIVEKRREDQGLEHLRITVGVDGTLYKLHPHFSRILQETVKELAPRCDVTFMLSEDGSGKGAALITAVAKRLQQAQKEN
# Sequence of Mu-type opioid receptor (P35372 whole entry): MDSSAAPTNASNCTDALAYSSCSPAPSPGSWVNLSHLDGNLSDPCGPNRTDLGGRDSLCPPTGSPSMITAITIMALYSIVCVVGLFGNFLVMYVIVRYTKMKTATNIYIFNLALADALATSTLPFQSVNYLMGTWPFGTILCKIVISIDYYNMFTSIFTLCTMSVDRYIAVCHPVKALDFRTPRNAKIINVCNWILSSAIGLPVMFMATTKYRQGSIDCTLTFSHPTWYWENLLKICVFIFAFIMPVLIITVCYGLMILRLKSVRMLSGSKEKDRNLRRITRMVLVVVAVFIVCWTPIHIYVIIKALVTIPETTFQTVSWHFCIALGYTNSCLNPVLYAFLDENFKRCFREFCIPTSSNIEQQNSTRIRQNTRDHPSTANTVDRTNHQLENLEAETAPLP
# Sequence of Hexokinase-1 (P19367 whole entry): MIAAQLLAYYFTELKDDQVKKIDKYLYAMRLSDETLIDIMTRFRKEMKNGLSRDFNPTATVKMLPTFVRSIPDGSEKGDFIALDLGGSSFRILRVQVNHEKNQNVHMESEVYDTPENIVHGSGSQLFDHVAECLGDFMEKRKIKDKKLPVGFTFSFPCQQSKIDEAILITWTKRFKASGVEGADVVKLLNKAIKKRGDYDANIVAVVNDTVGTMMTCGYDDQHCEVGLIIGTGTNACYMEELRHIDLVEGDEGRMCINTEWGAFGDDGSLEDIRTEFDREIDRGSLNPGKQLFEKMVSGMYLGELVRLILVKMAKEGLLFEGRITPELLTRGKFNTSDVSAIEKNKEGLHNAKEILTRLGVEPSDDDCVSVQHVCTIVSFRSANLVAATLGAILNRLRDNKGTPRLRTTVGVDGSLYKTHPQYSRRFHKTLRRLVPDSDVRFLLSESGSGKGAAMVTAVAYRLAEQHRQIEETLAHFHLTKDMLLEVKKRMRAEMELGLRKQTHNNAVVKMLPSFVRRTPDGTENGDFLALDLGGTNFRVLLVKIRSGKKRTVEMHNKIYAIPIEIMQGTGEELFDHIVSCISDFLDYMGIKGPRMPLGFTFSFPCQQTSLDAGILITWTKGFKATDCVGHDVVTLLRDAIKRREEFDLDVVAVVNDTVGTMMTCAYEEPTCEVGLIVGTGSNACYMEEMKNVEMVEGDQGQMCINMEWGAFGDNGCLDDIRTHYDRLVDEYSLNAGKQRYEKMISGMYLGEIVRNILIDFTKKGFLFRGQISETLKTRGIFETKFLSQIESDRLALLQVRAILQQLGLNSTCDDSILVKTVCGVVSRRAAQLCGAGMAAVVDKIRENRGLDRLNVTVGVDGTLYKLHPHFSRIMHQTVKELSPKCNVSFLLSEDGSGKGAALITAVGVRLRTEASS
# Sequence of Hexokinase (Q38C41 whole entry): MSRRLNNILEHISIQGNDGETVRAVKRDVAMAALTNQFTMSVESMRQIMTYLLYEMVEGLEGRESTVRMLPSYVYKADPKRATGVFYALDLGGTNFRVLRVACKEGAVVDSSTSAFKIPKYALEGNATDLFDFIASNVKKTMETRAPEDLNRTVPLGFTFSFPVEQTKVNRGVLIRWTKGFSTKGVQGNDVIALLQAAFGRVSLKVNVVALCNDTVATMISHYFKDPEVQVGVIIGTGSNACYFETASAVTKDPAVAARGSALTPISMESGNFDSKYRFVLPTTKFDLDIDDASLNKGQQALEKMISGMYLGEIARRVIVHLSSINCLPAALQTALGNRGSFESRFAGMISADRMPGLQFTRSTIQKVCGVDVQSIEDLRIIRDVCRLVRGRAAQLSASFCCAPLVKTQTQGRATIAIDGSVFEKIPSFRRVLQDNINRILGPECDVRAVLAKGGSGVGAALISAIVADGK
compound,measurement,setting,value
N=C1SCC(=O)N1c1ncc(Cc2ccccc2Cl)s1,EC50,Ion channel NompC,> 29.9 µM (not active)
same,EC50,Beta-galactosidase [1],> 31.5 µM (inactive)
same,IC50,[2],3 µM (active)
same,IC50,Beta-galactosidase [3],> 66.6 µM (inactive)
same,IC50,[4],> 32 µM
same,IC50,[5],6.6 µM (active)
same,EC50,Mucolipin-3,1.16 µM (active)
CCOC(=O)c1c(C)[nH]c(C2=NN=C(Nc3ccc(OCC)cc3)SC2)c1C,EC50,Hexokinase HKDC1,19.4 µM (active)
same,EC50,Hexokinase-1,21.1 µM (inactive)
Cc1ccc(/C=C(\C#N)C(=O)Nc2cccc3ncccc23)o1,AC50,[6],0.701 µM (active)
same,IC50,[7],23.6 µM (active)
same,IC50,[8],17.4 µM (active)
same,IC50,[9],> 25 µM (inactive)
same,IC50,[10],26.6 µM (active)
O=C(COc1ccccc1Cl)Nc1nnc(-c2ccc3ccccc3c2)o1,EC50,[11],4.8 µM (active)
Cc1ccccc1N1Cc2ccccc2C1=O,IC50,Hexokinase,> 25 µM (inactive)
COc1ccc(N2CCN(CCCNC(=O)Cn3c(=O)c4cccn4c4c(C)ccnc43)CC2)cc1,IC50,Mu-type opioid receptor,> 32 µM (inactive)
same,IC50,[12],> 32 µM (inactive)
Nc1[nH]n(-c2ccccc2)c(=O)c1N=Nc1ccc2c(c1)OCCO2,IC50,Nonstructural protein 1,28.8 µM (active)
